Results on 23 molecules are retold here after ChEMBL document CHEMBL5214895, “3-Hydroxy-propanamidines, a New Class of Orally Active Antimalarials Targeting Plasmodium falciparum” (J Med Chem, 2021).

Series [1] concerns Plasmodium falciparum. As to the kind of experiment: Antiplasmodial activity against multidrug resistant asexual blood stage Plasmodium falciparum Dd2 assessed as inhibition of parasite growth incubated for […] by HRP2-ELISA. Type of series: functional, organism-based.
The nature of series [2]: Selectivity index, ratio of IC50 for cytotoxicity against human HepG2 cells to IC50 for antiplasmodial activity against chloroquine-sensitive asexual blood stage Plasmodium falciparum 3D7. The format is toxicity, cell-based. As to conditions: read-out: Ratio IC50.
Series [3] can be described thus: Cytotoxicity against human HepG2 cells assessed as inhibition of cell growth incubated for 24 hrs by neutral red dye based analysis. The format is toxicity.
For series [4], the system named is Plasmodium falciparum. As to the kind of experiment: Antiplasmodial activity against chloroquine-sensitive asexual blood stage Plasmodium falciparum 3D7 assessed as inhibition of parasite growth incubated for […] by HRP2-ELISA. The format is functional, organism-based.
The subject of series [5] is Plasmodium berghei. The series can be described thus: Antimalarial activity against Plasmodium berghei infected in mouse assessed as mean survival days at 30 mg/kg, po administered for 4 times starting from 4 to 72 hrs and monitered for 30 days (reference value: 4 days). The format is functional. As to conditions: time 30 day.
The subject of series [6] is Plasmodium berghei. As to the kind of experiment: Antimalarial activity against Plasmodium berghei infected in mouse assessed as reduction in parasitemia in blood at 30 mg/kg, po administered for 4 times starting from 4 to 72 hrs and measured after 96 hrs post infection (reference value: 0%). The format is functional. More on the design: scale not given: the % may be the effect or the level left.

In series [7] the test system is Plasmodium berghei. The series can be described thus: Antimalarial activity against Plasmodium berghei infected in mouse assessed as mean survival days at 50 mg/kg, po administered for 4 times starting from 4 to 72 hrs and monitered for 30 days (reference value: 4 days). The format is functional. As to conditions: time 30 day.
Series [8] relates to Plasmodium falciparum. The series can be described thus: Antiplasmodial activity against multidrug resistant asexual blood stage Plasmodium falciparum Dd2-B2 assessed as inhibition of parasite growth incubated for 72 hrs by SYBR green-based assay. Type of series: functional, organism-based. To be noted: Dd2-B2, 72 h.
In series [9] the test system is Plasmodium berghei. The series can be described thus: Antimalarial activity against Plasmodium berghei infected in mouse assessed as reduction in parasitemia in blood at 10 mg/kg, po administered for 4 times starting from 4 to 72 hrs and measured after 96 hrs post infection (reference value: 0%). Type of series: functional. On the set-up: scale not given: the % may be the effect or the level left.

The subject of series [10] is Plasmodium falciparum. As to the kind of experiment: Antiplasmodial activity against hyper mutating Plasmodium falciparum Dd2 harboring proofreading-deficient DNA polymerase delta assessed as inhibition of parasite growth incubated for 72 hrs by SYBR green-based assay. As to conditions: Dd2, 72 h. Type of series: functional, organism-based.
Series [11] concerns Plasmodium berghei. As to the kind of experiment: Antimalarial activity against Plasmodium berghei infected in mouse assessed as reduction in parasitemia in blood at 50 mg/kg, po administered for 4 times starting from 4 to 72 hrs and measured after 96 hrs post infection (reference value: 0%). Type of series: functional. On the set-up: scale not given: the % may be the effect or the level left.

Series [12] can be described thus: Cytotoxicity against human HeLa cells assessed as inhibition of cell growth incubated for 24 hrs by neutral red dye based analysis. Type of series: toxicity.
For series [13], the system named is Plasmodium falciparum. As to the kind of experiment: Inhibition of hemozoin formation in sorbitol-synchronized early ring stage plasmodium falciparum NF54 trophozoites assessed as reduction in hemozoin level at 1 to 2.5 times IC50 incubated for 28 hrs by flow cytometry analysis. The format is functional.
Series [14] in a line: Cytotoxicity against HEK293 cells assessed as inhibition of cell growth incubated for 24 hrs by neutral red dye based analysis. Type of series: toxicity. To be noted: human.
The subject of series [15] is Plasmodium falciparum. As to the kind of experiment: Inhibition of hemozoin formation in sorbitol-synchronized early ring stage plasmodium falciparum NF54 trophozoites assessed as increase in free heme level at 1 to 2.5 times IC50 incubated for 28 hrs by flow cytometry analysis. The format is functional.
Series [16] can be described thus: Selectivity index, ratio of IC50 for cytotoxicity against HEK293 cells to IC50 for antiplasmodial activity against chloroquine-sensitive asexual blood stage Plasmodium falciparum 3D7. Type of series: toxicity, cell-based. As to conditions: human, read-out: Ratio IC50.
The nature of series [17]: Selectivity index, ratio of IC50 for cytotoxicity against human HeLa cells to IC50 for antiplasmodial activity against chloroquine-sensitive asexual blood stage Plasmodium falciparum 3D7. Type of series: toxicity, cell-based. To be noted: read-out: Ratio IC50.

Activity calls are given as the source filed them. No cut-off for these calls is given here. A value given as a limit tells only on which side of the number the result lay.

With `COc1ccc2nccc(C(O)C/C(N)=N/c3ccc(F)cc3)c2c1` (centres undefined), the IC50 in [1] came to 5.1 µM; in series [4] it was 2.1 µM. Further, in series [2], the selectivity ratio is 86. Besides, in series [3], the IC50 at 24 h was found to be 180 µM.

For the molecule `N=C(CC(O)c1cc2ccccc2c2ccccc12)NCCc1ccc(F)cc1` (centres undefined), the IC50 in series [1] was 1.1 µM; in series [4], 0.33 µM. Also, the selectivity ratio in [2] was determined as 16. Besides, the IC50 at 24 h in series [3] worked out at 5 µM.

With `N/C(CC(O)c1cc2c(Cl)cc(Cl)cc2c2cc(C(F)(F)F)ccc12)=N\N1CCCCC1` (centres undefined), the selectivity ratio in [2] came to 1190. Besides, the half-maximal inhibitory concentration (IC50) at 24 h in series [3] turned out to be 8.3 µM.

In the case of `N/C(CC(O)c1cc2c(F)cc(F)cc2c2cc(C(F)(F)F)ccc12)=N\N=C\c1ccc(F)cc1` (centres undefined), the MSD in series [5] was found to be 25 days; in [7], 22 days. Moreover, the Activity was 99.4% in series [6], 99.5% in series [9] and 99.9% in [11]. Besides, the values for the IC50 in series [8] and in series [10] were 0.0244 µM and 0.0268 µM, respectively.

In the case of `COc1ccc(CC/N=C(\N)CC(O)c2cc3ccccc3c3ccccc23)cc1` (centres undefined), the results for the IC50 in [1] and in [4] were 0.7 µM and 0.07 µM, respectively. Also, the selectivity ratio in [2] turned out to be 129. Besides, the half-inhibitory concentration (IC50) at 24 h in [3] was 9 µM.

As to `COc1ccc(/N=C(\N)CC(O)c2ccc(C(C)(C)C)cc2)cc1` (centres undefined), the IC50 was determined as 2.4 µM in series [1] and 3.4 µM in series [4]. Besides, the selectivity ratio in series [2] is 17. In addition, the IC50 at 24 h in series [3] was 56.2 µM.

As to `N/C(CC(O)c1ccnc2ccccc12)=N\c1ccc(F)cc1` (centres undefined), the values for the IC50 in series [1] and in [4] were 5.6 µM and 3.4 µM, respectively. Further, in series [2], the selectivity ratio is more than 200. The IC50 at 24 h in series [3] was more than 200 µM.

For `N=C(CC(O)c1cc2ccccc2c2ccccc12)NCc1ccccc1` (centres undefined), the values for the IC50 in [1] and in series [4] were 1.5 µM and 0.48 µM, respectively. For the same molecule, in [2], the selectivity ratio was 27. In addition, in series [3], the IC50 at 24 h worked out at 13 µM.

As for `CC(C)(C)c1cc(C(O)C/C(N)=N/c2ccc(F)cc2)cc(C(C)(C)C)c1` (centres undefined), the IC50 in series [1] worked out at 0.35 µM; in series [4], 0.33 µM.

In the case of `CCN(CC)CCCC(C)Nc1ccnc2cc(Cl)ccc12` (centres undefined) [CHLOROQUINE], in series [5], the MSD is 21 days. The Activity in [6] was 99.9%. Also, the IC50 at 24 h in series [12] and in series [14] was more than 1000 µM throughout. Also, the inhibition result in series [13] and in series [15] was “Active” throughout.

In the case of `CCCCN(CCCC)CC(O)c1cc(Cl)cc2c1-c1ccc(Cl)cc1/C2=C/c1ccc(Cl)cc1` (centres undefined) [LUMEFANTRINE], the MSD in series [5] is more than 30 days. Besides, the Activity in series [6] is 99.8%. Besides, the IC50 in series [1] is 0.002 µM; in series [4] it was 0.006 µM. In addition, the selectivity ratio in [2] came out at 20. Moreover, the IC50 at 24 h in [3] was more than 20 µM.

With `N/C(CC(O)c1cc2ccccc2c2ccccc12)=N\c1ccc(F)cc1` (centres undefined), the figures for the IC50 in series [1] and in [4] were 0.04 µM and 0.027 µM, respectively. For the same molecule, the selectivity ratio in series [2] came out at 344. Also, the IC50 at 24 h in [3] was 9.3 µM.

With `C[C@H]1[C@H](OC(=O)CCC(=O)O)O[C@@H]2O[C@@]3(C)CC[C@H]4[C@H](C)CC[C@@H]1[C@@]24OO3` [ARTESUNATE], the MSD in series [5] was found to be 9 days. Moreover, in [6], the Activity worked out at 99%.

Consider `CC(C)(C)c1ccc(C(O)C/C(N)=N/c2ccc(F)cc2)cc1` (centres undefined), for which the figures for the IC50 in [1] and in series [4] were 0.94 µM and 1.5 µM, respectively. Also, the selectivity ratio in [2] came to 38. In addition, the IC50 at 24 h in [3] came out at 57.5 µM.

Regarding `N/C(CC(O)c1cc2c(F)cc(F)cc2c2cc(C(F)(F)F)ccc12)=N\CCc1ccc(F)cc1` (centres undefined), the values for the IC50 in [1] and in series [4] were 0.12 µM and 0.24 µM, respectively.

As for `CC(C)(C)c1ccc(/N=C(\N)CC(O)c2ccc(C(C)(C)C)cc2)cc1` (centres undefined), the IC50 in [1] and in series [4] was 0.05 µM throughout. The selectivity ratio in [2] is 236. In series [3], the IC50 at 24 h turned out to be 11.8 µM.

As for `N/C(CC(O)c1cc2c(Cl)cc(Cl)cc2c2cc(C(F)(F)F)ccc12)=N\OCc1ccc(F)cc1` (centres undefined), the selectivity ratio in [2] was 122. The IC50 at 24 h in series [3] was 34.1 µM.

`N=C(CC(O)c1cc2ccccc2c2ccccc12)NCc1ccc(F)cc1` (centres undefined): the IC50 is 20 µM in [1] and 0.98 µM in series [4]. In addition, the selectivity ratio in [2] was 9. Moreover, in series [3], the IC50 at 24 h was 9.2 µM.

Take `N=C(CC(O)c1cc2c(Cl)cc(Cl)cc2c2cc(C(F)(F)F)ccc12)NCCc1ccc(F)cc1` (centres undefined): the IC50 came to 0.23 µM in [1] and 0.35 µM in [4]. The selectivity ratio in series [2] was 21. The concentration for half-maximal inhibition (IC50) at 24 h in [3] worked out at 7.3 µM.

For `Cl.N/C(CC(O)c1c2ccccc2cc2ccccc12)=N\c1ccc(F)cc1` (centres undefined), the IC50 at 24 h in series [12] was determined as 127 µM; in [3], 7.5 µM; in series [14] it was 78.3 µM. For the same molecule, the IC50 in [1] worked out at 0.009 µM; in series [4] it was 0.005 µM. Also, the selectivity ratio in series [2] was determined as 1500; in series [16], 15700; in series [17], 25400. In series [11], the Activity came to 40%.

Take `N/C(CC(O)c1cc2ccccc2c2ccccc12)=N\CCc1ccccn1` (centres undefined): the IC50 in series [1] worked out at 22.8 µM; in series [4], 15 µM. Further, in series [2], the selectivity ratio stood at 3. Moreover, the IC50 at 24 h in series [3] is 50.5 µM.

As for `CCN(CC)Cc1cc(/N=C(\N)CC(O)c2cc3ccccc3c3ccccc23)ccc1O` (centres undefined), the IC50 in series [1] worked out at 0.64 µM; in series [4], 0.05 µM. Moreover, the selectivity ratio in [2] is 304. The IC50 at 24 h in series [3] is 15.2 µM.

Turning to `N=C(CC(O)c1cc2ccccc2c2ccccc12)NCCc1ccccc1` (centres undefined), the results for the IC50 in [1] and in series [4] were 10 µM and 0.72 µM, respectively. Further, the selectivity ratio in series [2] was found to be 8. In addition, the IC50 at 24 h in series [3] is 5.7 µM.
